Data: patent US20250206773A1, “FORMS AND COMPOSITIONS OF SODIUM CHENODEOXYCHOLATE” (Syntis Bio, Inc., priority 2022, published 2025)
One block for each compound: values may come before it.

How the values were obtained:
Assay type in all cases: physicochemical
[1] = Dynamic vapor sorption (DVS) hygroscopicity; details: 25° C.
Description: DVS measurements were performed with a SMS—DVS Intrinsic. The sample size was about 50 mg, accurately weighed. The measurement was performed at 25° C., the relative humidity (RH) range investigated was 40-90-0-90% RH with 10% RH steps. After each RH change, the mass of the sample was allowed to stabilize (waiting time 10 to 60 minutes, stabilization criterion ≤0.002 g for 10 minutes). The hygroscopicity of the sample was calculated as follows: [formula] • where: • W1: weight of sample at the start of the experiment (25° C. and 40% RH) • W2: weight of sample at 25° C. and 80% RH in the first sorption cycle High Pressure Liquid Chromatography (HPLC)

[2] = Exposure to moist air (RH 95%, room temperature), XRPD before/after; details: 15-20 hours at 95% humidity
Description: FIG. 4 is a series of XRPD patterns, showing NaCDC Form A before (thick line) and after (thin line) 15 hours of exposure to RH 95% at room temperature. FIG. 8 is a series of XRPD patterns, showing NaCDC Form B before (thick line) and after (thin line) 15 hours of exposure to RH 95% at room temperature.

[3] = Intrinsic dissolution, USP rotating disk apparatus
Description: For the intrinsic dissolution studies, the following HPLC method was used: [table] Intrinsic dissolution profiles of NaCDC Form A and Form B were determined from a drug disk of constant surface area using a USP rotating disk apparatus in phosphate buffer (pH 7.4) at 37° C. […] A typical apparatus consisted of a punch and a die, whose base is attached to a surface plate. […] The punch was then inserted in the die cavity and the test material was compressed with a hydraulic press. A non-disintegrating compact of the material was formed in the die cavity with a single face of defined area exposed on the bottom of the die. The die assembly was then attached to a shaft with a holder and the surface plate was removed. The shaft holding the die assembly was positioned into the dissolution medium at a distance not less than 1.0 cm from the bottom of the vessel. In this procedure, fluid flow was generated by the rotation of the die. The amount of material dissolved was measured as a function of time. In particular, the cumulative amount dissolved at each time point was corrected for losses due to sampling. […] Method parameters are summarized below: [table]

[4] = Storage of screening solids at RT, XRPD after storage
Description: Form S2 was obtained from experiment VDS05 with EtOH after 12 days of diffusion at 50° C. […] The HPLC purity of the tested material was 92.1% at 212 nm. TG/DSC analysis of this material was consistent with that obtained from experiments SAS48, SDGR01, and SDGR07. XRPD analysis of this material is shown in FIG. 33, and the corresponding data summarized in Table S2: Form S8 was obtained in mixture with starting material ([…]) from experiment VDS12 with MEK after 12 days of diffusion at 50° C. […] The HPLC purity of the tested material was 93.7% at 212 nm. An XRPD spectrum of the material from experiment VDS12 is shown in FIG. 34A, as compared to NaCDC Form B, and the corresponding data are summarized in Table S8: The precipitate that formed in the water solution in the presence of acetone (as anti-solvent) was stored at RT for up to 3 weeks before it was subjected to thermal analysis. In this case, the majority of ASDS03 solid was dried at RT on filter paper up to 2 h and after that the recovered material was analyzed by XRPD. […] (Tonset) was observed. […] The precipitates that formed in the water solution in the presence of acetonitrile (as anti-solvent) from experiments ASDS04 and ASDS08 were stored at RT up to 24 days before being subjected to thermal analysis. In this case, the majority of solids from experiments ASDS04 and ASDS08 were dried at RT on filter paper for 1-2 h, and after that the recovered materials were analyzed by XRPD. […] The corresponding data for the initial material obtained from experiment […]) are summarized below: The precipitate that formed into the TFE solution in the presence of MTBE (as anti-solvent) was stored at RT for 22 days before being subjected to thermal analysis. In this case, the majority of the material from experiment ASDS19 was dried at RT on filter paper up to 2 h, and after that the recovered material was analyzed by XRPD. […] Considering that Form S12 was obtained as mixture with amorphous phase and with low crystallinity, there is a possibility that Form S12 is the same as Form S15. The XRPD data from experiment ASDS19 before storage for 22 days is summarized in Table S12, and the XRPD data from experiment ASDS19 after storage for 22 days is summarized in Table S15. The precipitate that formed into the TFE solution in the presence of DIPE (as anti-solvent) was stored at RT for 22 days before being subjected to thermal analysis. In this case, the majority of material obtained from experiment ASDS16 was dried at RT on filter paper up to 2 h, and after that, the recovered material was analyzed by XRPD. […] The precipitate that formed into the water solution in the presence of acetone (as anti-solvent) was stored at RT for 2 weeks before being subjected to thermal analysis. In this case, the majority of material obtained from experiment RAS11 was dried at RT on filter paper for 1-2 h, and after that the recovered material was analyzed by XRPD. […] The precipitate that formed into the TFE solution in the presence of iPrOAC (as anti-solvent) was stored at RT for 2 weeks before being subjected to thermal analysis. In this case, the majority of material from experiment RAS34 dried at RT on filter paper for 1-2 h, and after that the recovered material was analyzed by XRPD. […] The precipitate that formed into the TFE solution in the presence of EtOAc (as anti-solvent) was stored at RT for 2 weeks before being subjected to thermal analysis. In this case, the majority of material obtained from experiment RAS33 was dried at RT on filter paper for 1-2 h, and after that the recovered material was analyzed by XRPD. […] The precipitate that formed into the TFE solution in the presence of MTBE (as anti-solvent) was stored at RT for 2 weeks before being subjected to thermal analysis. In this case, the majority of the material obtained from experiment RAS36 that had been stored for 2 weeks was dried at RT on filter paper for 1-2 h, and after that the recovered material was analyzed by XRPD.

Compound: C[C@H](CCC(=O)[O-])[C@H]1CC[C@H]2[C@@H]3[C@H](O)C[C@@H]4C[C@H](O)CC[C@]4(C)[C@H]3CC[C@]12C.[Na+] [Form S3, sodium chenodeoxycholate]
XRPD form after storage ([4]; RAS34 precipitate in TFE/iPrOAc, stored at RT for 2 weeks): remained unchanged

Compound: C[C@H](CCC(=O)[O-])[C@H]1CC[C@H]2[C@@H]3[C@H](O)C[C@@H]4C[C@H](O)CC[C@]4(C)[C@H]3CC[C@]12C.[Na+] [Form S8, sodium chenodeoxycholate]
form on storage ([4]; VDS12 material (MEK vapor, 50° C.), mixture with NaCDC Form B, storage at RT): remained stable

Compound: C[C@H](CCC(=O)[O-])[C@H]1CC[C@H]2[C@@H]3[C@H](O)C[C@@H]4C[C@H](O)CC[C@]4(C)[C@H]3CC[C@]12C.[Na+] [Form S9-b, sodium chenodeoxycholate]
XRPD form after storage ([4]; ASDS08 precipitate in water/acetonitrile, stored at RT 23 days): transformed into a form similar to Form S9-a

Compound: C[C@H](CCC(=O)[O-])[C@H]1CC[C@H]2[C@@H]3[C@H](O)C[C@@H]4C[C@H](O)CC[C@]4(C)[C@H]3CC[C@]12C.[Na+] [Form S13, sodium chenodeoxycholate]
XRPD form after storage ([4]; ASDS16 precipitate in TFE/DIPE, stored at RT for 22 days): remained unchanged

Compound: C[C@H](CCC(=O)[O-])[C@H]1CC[C@H]2[C@@H]3[C@H](O)C[C@@H]4C[C@H](O)CC[C@]4(C)[C@H]3CC[C@]12C.[Na+] [Form S15, sodium chenodeoxycholate]
XRPD form after storage ([4]; RAS36 precipitate in TFE/MTBE, stored at RT for 2 weeks): transformed into Form S14

Continued, in another order:

hygroscopicity by DVS [1]: hygroscopic
weight change in the first sorption cycle (DVS) ([1]; 40% RH to 80% RH): 14.1%
solid form after compression (XRPD) ([3]; 2 tons for 2 minutes): no change in solid form
IDR (intrinsic dissolution rate) ([3]; USP phosphate buffer pH 7.4, 37° C., 100 rpm, disk 0.5024 cm^2): 0.6959 mg · min^−1 · cm^−2
Compound: C[C@H](CCC(=O)[O-])[C@H]1CC[C@H]2[C@@H]3[C@H](O)C[C@@H]4C[C@H](O)CC[C@]4(C)[C@H]3CC[C@]12C.[Na+] [Form A, sodium chenodeoxycholate]
effect of exposure to moist air (XRPD) [2]: partial amorphization and loss of crystallinity

XRPD form after storage ([4]; ASDS03 precipitate in water/acetone, stored at RT up to 3 weeks, dried on filter paper): transformed into Form S14
XRPD form after storage ([4]; RAS11 precipitate in water/acetone, stored at RT for 2 weeks): high tendency of amorphization
Compound: C[C@H](CCC(=O)[O-])[C@H]1CC[C@H]2[C@@H]3[C@H](O)C[C@@H]4C[C@H](O)CC[C@]4(C)[C@H]3CC[C@]12C.[Na+] [Form S1, sodium chenodeoxycholate]

form on storage ([4]; VDS05 material (EtOH vapor, 12 days, 50° C.), storage conditions at RT): remained stable
Compound: C[C@H](CCC(=O)[O-])[C@H]1CC[C@H]2[C@@H]3[C@H](O)C[C@@H]4C[C@H](O)CC[C@]4(C)[C@H]3CC[C@]12C.[Na+] [Form S2, sodium chenodeoxycholate]

XRPD form after storage ([4]; RAS33 precipitate in TFE/EtOAc, stored at RT for 2 weeks): transformed into Form S1
Compound: C[C@H](CCC(=O)[O-])[C@H]1CC[C@H]2[C@@H]3[C@H](O)C[C@@H]4C[C@H](O)CC[C@]4(C)[C@H]3CC[C@]12C.[Na+] [Form S6, sodium chenodeoxycholate]

XRPD form after storage ([4]; ASDS04 precipitate in water/acetonitrile, stored at RT 22 days): remained unchanged
Compound: C[C@H](CCC(=O)[O-])[C@H]1CC[C@H]2[C@@H]3[C@H](O)C[C@@H]4C[C@H](O)CC[C@]4(C)[C@H]3CC[C@]12C.[Na+] [Form S9-a, sodium chenodeoxycholate]

XRPD form after storage ([4]; ASDS19 precipitate in TFE/MTBE, stored at RT for 22 days): transformed into Form S15
Compound: C[C@H](CCC(=O)[O-])[C@H]1CC[C@H]2[C@@H]3[C@H](O)C[C@@H]4C[C@H](O)CC[C@]4(C)[C@H]3CC[C@]12C.[Na+] [Form S12, sodium chenodeoxycholate]
